Reference: patent US20220090083A1, “TARGETING EGLN1 IN CANCER” (THE BROAD INSTITUTE, INC., priority 2018, published 2022)

Legend:
ES2 [1] = assay: CellTiter-Glo viability assay, ES2; assay type: cell-based, human; conditions: for IC50: Homo sapiens, ES-2, ES2, read-out: IC50 cellular viability (CellTiter-Glo)
Experimental: (§1) CellTiter-Glo (CTG) viability assays were performed per the manufacturer's instructions. Briefly, 5,000-10,000 cells were seeded per well in a 96 well plate then treated with either DMSO or EGLN1 inhibitor in doses indicated. […] Data presented are the average of three technical replicates.

ES2 [2] = assay: Long term proliferation assay, ES2; assay type: cell-based, human; conditions: for long term proliferation: ES2; for proliferation: ES2 control sgRNA cells
Source text: (§8) Data presented are the average of three technical replicate wells when available, excluding wells where there were no live cells to passage. Data are representative of two independent experiments.

ES2 HIF1A knockout = assay: Proliferation assay, ES2 HIF1A knockout cells; assay type: cell-based, human
Source text: as §8

tumors formed from ES2 = assay: Microdevice delivery into ES2 tumors, immunohistochemistry; assay type: in vivo, mice; conditions: ES2 (HIF1A WT) tumors, local microdevice delivery, 48 hours
Experimental: (§2) Female Athymic^Nu/Nu mice (8-10 weeks old) were used, were obtained from Jackson Laboratories and had access to food and water in appropriate housing conditions. All animal procedures performed at the Broad Institute were approved by the Institutional Animal Care and Use Committee (IACUC) and according to institutional regulations.
(§3) Devices were manufactured as previously described (42). Briefly, microscale devices at diameter […] and length 3 mm were manufactured and pure powder compounds were formulated in 50% PEG. Mice were subcutaneously delivered ovarian cancer cells and tumors were allowed to grow to 1 cm^2. Mice were anesthetized during implantation using 1% isoflurane. A 19-guage spinal biopsy needle (Angiotech) was inserted into the tumor and served as the location for the device to be implanted.
(§4) Immunohistochemistry was performed on 4 μm serial sections from formalin-fixed, paraffin-embedded (FFPE) tumor tissues. The samples were deparaffinized, rehydrated, and pretreated for antigen retrieval by microwave treatment. Immunostaining was done using cell proliferation marker Ki67 and cleaved caspase 3 (CCE) at the Koch Institute Microscopy Core Facility.
(§5) By inserting this microdevice directly into the tumor, the effect of FG-4592, Bay 85-3934 and VH298 in tumors was assessed in vivo. Specifically, ES2 cells were implanted with intact HIF1A (ES2) or HIF1A knockout (ES2 HIF1A KO) in immunodeficient mice and the tumors were allowed to grow to 1 cm^2 before implanting a microdevice containing the EGLN1 inhibitor FG-4592 and VHL inhibitor VH298. Following implantation, the tumors were collected after 48 hours and the tumors were sectioned and stained for proliferation with an antibody against Ki-67, a cellular marker for proliferating cells or Cleaved Caspase-3, a cellular marker for apoptosis.

OVTOKO = assay: Long term proliferation assay, OVTOKO; assay type: cell-based, human; conditions: dose-dependent
Source text: (§6) Data are representative of two independent experiments.

OVISE [3] = assay: Long term proliferation assay, OVISE; assay type: cell-based, human; conditions: for long term proliferation: OVISE, dose-dependent
Source text: as §8

HIF1A = assay: Immunoblot of HIF1A levels after inhibitor treatment; assay type: cell-based, human
[4] = tested on: tumors formed from ES2 with HIF1A KO; assay: Microdevice delivery into ES2 HIF1A KO tumors, immunohistochemistry; assay type: in vivo, mice; conditions: local microdevice delivery, 48 hours
Experimental: as §2, §3, §4, §5

TOV112D [5] = assay: Long term proliferation assay, TOV112D; assay type: cell-based, human
Source text: as §6

[6] = tested on: not EGLN1-dependent cell lines; assay: Colony formation assay, not EGLN1-dependent cell lines; assay type: cell-based, human
Source text: (§9) Media and drug were refreshed every 3-4 days for 10 days. Cells were fixed on the plate with 10% neutral buffered formalin (Thermo Fisher Scientific) and stained with 0.1% crystal violet in 10% ethanol. After plates were washed and dried, dye was extracted using 10% acetic acid. Absorbance of extracted dye samples at 595 nm was quantified using a Molecular Devices SpectraMax M5 Plate Reader. […] Data are representative of three independent experiments.

[7] = tested on: EGLN1-dependent cell lines; assay: Colony formation assay, EGLN1-dependent cell lines; assay type: cell-based, human
Source text: as §9

EGLN1-dependent cells = assay: CellTiter-Glo viability assay over 5 days; assay type: cell-based, human; conditions: treated over 5 days
Experimental: CellTiter-Glo (CTG) viability assays were performed per the manufacturer's instructions. Briefly, 5,000-10,000 cells were seeded per well in a 96 well plate then treated with either DMSO or EGLN1 inhibitor in doses indicated. Following 3-6 days treatment (retreated at day 4) CTG compound was added and viability was measured. Data presented are the average of three technical replicates.

ES2 [8] = assay: CFSE proliferation by flow cytometry, ES2; assay type: cell-based, human; conditions: ES2, increasing concentration, 48 hours
Experimental: (§7) Flow cytometry was performed at the Broad Institute Flow Cytometry core using CFSE (5(6)-Carboxyfluorescein N-hydroxysuccinimidyl ester)—Cell Labeling Kit (Abcam ab113853) to label dividing cells with CFSE and analyzed on FL-1 Excitation(max) 492 nm, Emission(max) 517 nm. Apoptosis was detected using PE Annexin V Apoptosis Detection Kit 1 (BD Biosciences 559763). Dual labeling Annexin V with 7-Amino-Actinomycin (7-AAD) allowed quantification of apoptosis. Data are presented as the average of two technical replicates and are representative of three independent experiments. Data were analyzed using FlowJo data analysis.

TOV112D [9] = assay: Annexin V apoptosis by flow cytometry, TOV112D; assay type: cell-based, human; conditions: 40 μM, 48 hours
Experimental: as §7, with “Apoptosis was detected using PE Annexin V Apoptosis Detection Kit 1 (BD Biosciences 559763).” left out

TOV112D [10] = assay: CFSE proliferation by flow cytometry, TOV112D; assay type: cell-based, human; conditions: increasing concentration, 48 hours
Experimental: as §7

TOV112D [11] = assay: Colony formation assay in hypoxia, TOV112D; assay type: cell-based, human; conditions: 5% oxygen
Source text: Data are representative of three independent experiments.

ES2 [12] = assay: Annexin V apoptosis by flow cytometry, ES2; assay type: cell-based, human; conditions: ES2, 40 μM, 48 hours
Experimental: as §7, with “Apoptosis was detected using PE Annexin V Apoptosis Detection Kit 1 (BD Biosciences 559763).” left out

[13] = tested on: sensitive cell lines (EGLN1-dependent); conditions: up to 30 days, p<0.01
Experimental: Non-Cas9 expressing cells were plated on a 12 well or 6 well plate in triplicate with varying concentrations of FG-4592. Every 3-4 days cells were trypsinized, counted using Nexcelom Cellometer, and reseeded at equal densities with the same concentrations of FG-4592, IOX2, BAY85-3934 or VH298. Data presented are the average of three technical replicate wells when available, excluding wells where there were no live cells to passage.

TOV21G = assay: Long term proliferation assay, TOV21G; assay type: cell-based, human; conditions: dose-dependent
Source text: as §6

OVISE [14] = assay: Annexin V apoptosis by flow cytometry, OVISE; assay type: cell-based, human; conditions: 40 μM, 48 hours
Experimental: as §7, with “Apoptosis was detected using PE Annexin V Apoptosis Detection Kit 1 (BD Biosciences 559763).” left out

JHOC5 = assay: Long term proliferation assay, JHOC5; assay type: cell-based, human; conditions: JHOC5, dose-dependent
Source text: as §6

[15] = tested on: EGLN1-dependent cell lines OVTOKO, OVISE and ES2; conditions: hypoxia (5% oxygen) and normoxia
Experimental: Cells were plated at a low density (250-1000 cells/well) with varying concentrations of FG-4592 (Selleck) on 24 well plates. Media and drug were refreshed every 3-4 days for 10 days. Cells were fixed on the plate with 10% neutral buffered formalin (Thermo Fisher Scientific) and stained with 0.1% crystal violet in 10% ethanol. After plates were washed and dried, dye was extracted using 10% acetic acid. Absorbance of extracted dye samples at 595 nm was quantified using a Molecular Devices SpectraMax M5 Plate Reader. […] Data are representative of three independent experiments.
To test this hypothesis, colony-forming formation assays were performed in the context of normal culture conditions (normoxia) or in a hypoxic incubator at 5% oxygen (hypoxia).

OVCAR4 = assay: Annexin V apoptosis by flow cytometry, OVCAR4; assay type: cell-based, human; conditions: OVCAR4, 40 μM, 48 hours
Experimental: as §7, with “Apoptosis was detected using PE Annexin V Apoptosis Detection Kit 1 (BD Biosciences 559763).” left out

HIF1A activity = assay: Hypoxia Response Element (HRE) luciferase reporter; assay type: cell-based, human; conditions: 48 hours post-treatment, increasing dose
Experimental: The Hypoxia Response Element (HRE) was designed based on previous publications (18, 19) and was cloned with a luciferase reporter. The construct was then stably transfected to EGLN1 dependent and independent cell lines. Following transfection cells were treated with EGLN1 inhibitor for up to 6 days and luciferase activity was measured as a readout of HIF1A activity.

OVISE HIF1A knockout = assay: Proliferation assay, OVISE HIF1A knockout cells; assay type: cell-based, human; conditions: 10 uM and 20 uM
Source text: as §6
However, such depletion of HIF1A rescued EGLN1-sensitivity to FG-4592 in ES2 (FIG. 5C) and OVISE (FIG. 5D) (p<0.05) cell lines.

TOV112D [16] = assay: CellTiter-Glo viability assay, TOV112D; assay type: cell-based, human; conditions: 48 hours, increasing dose
Experimental: as §1, with “replicates. Data are representative of three independent experiments.” for “replicates.”

Row | Compound | long term proliferation (ES2 [2]) | tumor cell apoptosis (Cleaved Caspase-3 immunostaining) (tumors formed from ES2) | tumor cell proliferation (Ki-67 immunostaining) (tumors formed from ES2) | long term proliferation (OVTOKO) | long term proliferation (OVISE [3]) | HIF1A levels (immunoblot) (HIF1A; ES2 cells) | tumor cell apoptosis (Cleaved Caspase-3 immunostaining) [4] | tumor cell proliferation (Ki-67 immunostaining) [4] | colony formation [6] | colony formation [7] | viability (CTG) (EGLN1-dependent cells) | IC50 (ES2 [1]) [µM] | HIF1A levels (immunoblot) (HIF1A; TOV112D cells) | also measured
1 | O=C(O)CNC(=O)c1nc(Cl)c2ccccc2c1O [FG-2216] | – | – | – | – | – | – | – | – | – | – | – | – | – | sensitivity of ES2 to EGLN1 inhibitors (viability) (ES2 [1]; ES2, FIG. 11D): showed sensitivity
2 | Cc1ncsc1-c1ccc(CNC(=O)[C@@H]2C[C@@H](O)CN2C(=O)[C@@H](NC(=O)C2(C#N)CC2)C(C)(C)C)cc1 [VH298] | substantially decreased cell proliferation | increased apoptosis | reduction of proliferating cells | reduced long term proliferation | reduced long term proliferation | increased HIF1A levels in a dose-dependent manner | dependent on intact HIF1A | dependent on intact HIF1A | – | – | – | – | – | proliferation (ES2 [2]; 100 uM): significantly reduced proliferation of control cells; proliferation (ES2 HIF1A knockout; 100 uM): resistant to VHL1 inhibition; proliferation (TOV112D [5]): slightly decreased proliferation
3 | O=C(O)CNC(=O)c1c(O)c2ccccc2n(Cc2ccccc2)c1=O [IOX2] | reduced long term proliferation | – | – | reduced long term proliferation | reduced long term proliferation | – | – | – | no effect | reduced colony formation | reduced viability in a dose-dependent manner | – | – | –
4 | Cc1nc(C(=O)NCC(=O)O)c(O)c2ccc(Oc3ccccc3)cc12 [FG-4592] | – | increased apoptosis | dramatic reduction in proliferating cells | – | – | increased HIF1A levels in a dose-dependent manner | no change | no change | no effect | reduced colony formation | reduced viability in a dose-dependent manner | 40 to 50 | increased HIF1A levels in a dose-dependent manner | proliferation (ES2 [2]; 10 uM and 20 uM): reduced proliferation of control cells; cell viability (CellTiter-Glo) (ES2 [1]; ES2, 48 hours, increasing dose): reduced viability; cell proliferation (CFSE stain, flow cytometry) (ES2 [8]): reduced cell proliferation; proliferation (ES2 HIF1A knockout; 10 uM and 20 uM): resistant to EGLN1 inhibition; apoptosis (Annexin V stain) (TOV112D [9]): not increasing apoptosis; cell proliferation (CFSE stain, flow cytometry) (TOV112D [10]): did not reduce cell proliferation; colony formation, sensitivity to inhibitor (TOV112D [11]): Increased sensitivity to EGLN1 inhibition was not observed; apoptosis (Annexin V stain) (ES2 [12]): increased apoptosis; long term proliferation [13]: significantly reduced long term proliferation; proliferation (OVISE [3]; OVISE control sgRNA cells, 10 uM and 20 uM): reduced proliferation of control cells; long term proliferation (TOV21G): reduced the long term proliferation; apoptosis (Annexin V stain) (OVISE [14]): increased apoptosis; long term proliferation (JHOC5): reduced long term proliferation; colony formation, sensitivity to inhibitor [15]: sensitive; apoptosis (Annexin V stain) (OVCAR4): not increasing apoptosis; HIF1A activity (HRE luciferase reporter) (HIF1A activity): increased in both EGLN1-dependent cell lines and cell lines not dependent on EGLN1; proliferation (OVISE HIF1A knockout): resistant to EGLN1 inhibition; cell viability (CellTiter-Glo) (TOV112D [16]): no effect
5 | O=c1c(-n2ccnn2)c[nH]n1-c1cc(N2CCOCC2)ncn1 [Molidustat] | – | – | – | – | – | increased HIF1A levels in a dose-dependent manner | – | – | – | – | – | 40 to 50 | increased HIF1A levels in a dose-dependent manner | –
6 | COc1cccc2c1C(=O)c1c(O)c3c(c(O)c1C2=O)C[C@@](O)(C(=O)CO)C[C@@H]3O[C@H]1C[C@H](N)[C@H](O)[C@H](C)O1 [doxorubicin] | – | increased apoptosis | reduced proliferation | – | – | – | increased apoptosis | reduced proliferation | – | – | – | – | – | –
